Assay results published in patent publication US8017350B2, “Glimepiride- and insulin-induced glycosylphosphatidylinositol-specific phospholipase C regulation” (Sanofi-Aventis Deutschland GmbH, priority 2004, dated 2011).

Tests used:
Type in all cases: cell-based
isolated rat adipocytes = assay: glucose transport assay (2-deoxy-D-[3H]glucose); conditions: 50 μM
Description: (§1) Glucose transport was determined as described in “Müller, G. et al., (1994) J. Cell Biol. 126: 1267-1276” by incubation of 10,000-20,000 washed adipocytes with 2-deoxy-D[2,6-^3H]glucose at 50 μM final conc. (0.33 μCi/ml) in 50-μl portions for 20 min at 37° C. in the absence or presence of 20 μM cytochalasin B.
(§2) Table 3: Isolated rat adipocytes were incubated in the presence of methyl-β-cyclodextrin (m-β-CD, 10 mM, 50 min), CBDP (300 μM, electroporation, followed by washing and subsequent incubation for 30 min), PIG41 (10 μM, 15 min), sodium orthovanadate (1 mM, 15 min), trypsin (10 μg/ml, 15 min followed by treatment with 0.5 M NaCl and subsequent washing) and N-ethylmaleimide (1 mM, 5 min followed by addition of DTT). After addition of GPI-2350 (50 μM final conc.) to one half of the adipocyte suspension and further incubation (60 min, 37° C.), portions of the cells were assayed for 5′-Nuc activity in the isolated IcDIGs. The increase in 5′-Nuc during the basal incubation was set at 100 arb. units. Other portions of the cells (after 15 min incubation) were assayed for glucose transport which was set at 100 arb. units for the basal incubation. Means+SD of at least 3 independent cell incubations with activity measurements in triplicate each are given.
(§3) FIG. 8: Effect of GPI-2350 on the glimepiride/insulin-induced metabolic activity. Isolated rat adipocytes were treated (5 min, 37° C.) without or with GPI-2350 (Panel A, 50 μM; Panel B, increasing conc.; Panel C, 5 μM, 50 μM) and then incubated (15 min, 37° C.) in the absence or presence of insulin (Ins, 10 nM) or glimepiride (Gli, 20 μM or increasing conc.) as indicated. The adipocytes were then assayed for glucose transport and isoproterenol-induced lipolysis. The activity is given relative to the absence of GPI-2350 in the control reaction (Panels A, basal) or in the insulin- and glimepiride-stimulated state (Panels B and C, set at 100). Means+SD of at least 5 independent cell incubations with activity measurements in triplicate each are given.

[1] = test system: GPI-PLC, intact rat adipocytes; assay: GPI-PLC activity in intact rat adipocytes (amphiphilic-to-hydrophilic conversion of endogenous 5'-Nuc, Gce1, aP)
Description: Adipocytes isolated by digestion from epididymal fat pads of male rats (120-140 g, fed ad libitum, see Ref. 53 [Muller et al.; Mol. Cell. Biol. 21:[…] (2001)]) were washed twice in KRH (20 mM Hepes/KOH, pH 7.4, 1.2 mM KH2PO4, 140 mM NaCl, 4.7 mM KCl, 2.5 mM CaCl2, 1.2 mM MgSO4) containing 1% (w/v) BSA and then incubated in the same medium supplemented with 100 μg/ml gentamycin, 100 nM 1-methyl-2-phenylethyladenosine, 0.5 U/ml adenosine deaminase, 1 mM sodium pyruvate and 5 mM D-glucose in the absence or presence of GPI-2350 (prepared as 10 mM stock solution in DMSO, the final DMSO concentration in the in vitro and adipocyte incubations was kept constant at 0.5% at any inhibitor concentration), insulin or glimepiride (prepared as described in “Müller et al. (1994) J. Cell. Biol. 126:1267-1276”) at 37° C. in a shaking water bath at constant bubbling with 5% CO2/95% O2 at a final titer of 100 μl of packed cell volume per ml incubation volume (determined by aspiration of small aliquots into capillary hematocrit tubes and centrifugation for 60 s [seconds] in a microhematocrit centrifuge in order to determine the fractional occupation of the suspension by the adipocytes; 10% cytocrit corresponds to about 1.5×10^6 cells/ml) for the periods indicated. […]

[2] = test system: glucose transport, rat adipocytes; assay: Glucose transport in rat adipocytes; conditions: GPI-2350 50 μM
Description: as §1
Subsequently, we studied whether the differential effects of GPI-PLC inhibition on IRS-1 tyrosine phosphorylation in response to insulin and glimepiride is reflected in their metabolic activity in insulin target cells. For this, isolated rat adipocytes were pretreated with GPI-2350 prior to challenge with either stimulus, and then assayed for glucose transport and isoproterenol-induced lipolysis (FIG. 8). […] These differential effects of GPI-PLC inhibition were confirmed by analysis of the effect of GPI-2350 on the inhibition of isoproterenol-induced lipolysis by glimepiride and insulin when measured as release of NBD-FA instead of glycerol from rat adipocytes prelabeled with this fluorescent fatty acid derivative (FIG. 9).
as §2, §3

CCCCCCCCCCCCP1(=O)O[C@@H]2[C@H](O)[C@@H](O)[C@H](O)[C@@H](O)[C@@H]2O1 (stereo partly shown) [GPI-2350, myo-inositol-1,2-cyclo-dodecylphosphonic acid]
effect on stimulation of glucose transport in response to glimepiride (isolated rat adipocytes): almost complete blockade | IC50 ([1]; FIG. 8, read-out: concentration of half-maximal inhibition of the GPI-PLC): 5 µM | reduction of basal and glimepiride-/insulin-stimulated GPI-PLC activity ([1]; intact adipocytes, concentration-dependent): to lower than basal and similar levels | glimepiride-stimulated glucose transport with GPI-2350 [2]: to lower than control values
